Assay results published in US7098237B1, “Remedies for ischemia reperfusion injury” (Shionogi & Co., Ltd., priority 1998, dated 2006).

What was measured:
[1] = tested on: Total Hepatic Vascular Exclusion Model (liver ischemia reperfusion); experiment: Hepatic function related factors (AST, ALT, LDH) by administration before ischemia, Total Hepatic Vascular Exclusion Model; format: in vivo, Beagle dogs; details: 0.2 mg/kg/hr continuous i.v. for one hour before ischemia; 2 h ischemia then reperfusion; peripheral artery blood
From the text: (§1) Beagle dogs (female, 10 to 12 kg) are used for experimental animals. Under the control of general anesthesia by inserting a tube into the trachea, a bypass is formed between the portal vein, femoral vein and external jugular vein. […] An auxiliary circulation is applied during this two hour's operation. Ischemia is continued for two hours, and reperfusion of the blood is resumed by releasing the clump. Various physiological changes are confirmed under laparotomy until three hours after reperfusion and thereafter abdomen is sutured (the method for maintaining anesthesia during this period follows the existing protocol, and fluctuation of the blood pressure and the like are not corrected by different anesthetic methods). Survival at two weeks after the surgery is confirmed.
The test compound is administered before and after warm ischemia. The compound is administered by intravenous injection.
Various factors related to the hepatic function and blood flow of hepatic tissues were measured by sampling over time from the peripheral artery and hepatic vein.
as §1, with “bypass was” for “bypass is”, “methods). The blood is collected from the peripheral artery to measure AST, ALT and LDH as indexes of the hepatic functions.” for “methods).”
The experimental group is divided into two groups with and without administration of the compound (1). […]

[2] = tested on: Total Hepatic Vascular Exclusion Model (liver ischemia reperfusion); experiment: Blood flow in the hepatic tissue by administration before ischemia (laser Doppler method); format: in vivo, Beagle dogs; details: 0.2 mg/kg/hr continuous i.v. for one hour before ischemia
From the text: as §1, with “bypass was” for “bypass is”, “methods). The blood is collected from the peripheral artery to measure AST, ALT and LDH as indexes of the hepatic functions.” for “methods).”
A dosage of 0.2 mg/kg/hr of the compound (1) was administered by continuous intravenous injection through the peripheral vein during the period of one hour from before ischemia to the occurrence of ischemia.
(§2) The blood flow in the hepatic tissue was measured using a laser Doppler method.

[3] = tested on: Total Hepatic Vascular Exclusion Model (liver ischemia reperfusion); experiment: Hepatic function related factors (AST, ALT, LDH) by administration after ischemia; format: in vivo, Beagle dogs; details: 0.2 mg/kg/hr continuous i.v. for one hour from 20 minutes before reperfusion to 40 minutes after reperfusion
From the text: as §1, with “bypass was” for “bypass is”, “methods). The blood is collected from the peripheral artery to measure AST, ALT and LDH as indexes of the hepatic functions.” for “methods).”
(§3) The experiments were carried out by the same method as in Example 1. A dosage of 0.2 mg/kg/hr of the compound (1) was administered by continuous intravenous injection through the peripheral vein for one hour from 20 minutes before blood reperfusion to 40 minutes after the reperfusion.

[4] = tested on: Total Hepatic Vascular Exclusion Model (liver ischemia reperfusion); experiment: Blood flow in the hepatic tissue by administration after ischemia (laser Doppler method); format: in vivo, Beagle dogs; details: 0.2 mg/kg/hr continuous i.v. for one hour from 20 minutes before reperfusion to 40 minutes after reperfusion
Description: as §2, §3
The blood flow in the hepatic tissue was measured by the same method as in Examples 2 and 3.

[5] = tested on: lung injury after small intestine ischemia reperfusion; details: Am. J. Physiol., 268: G397, 1995; cited from earlier work

CCc1c(C(=O)C(N)=O)c2c(OCC(=O)[O-])cc(C)cc2n1Cc1ccccc1.[Na+] [compound (1)]
ALT value compared with the control group (FIG. 2) [1]: significantly suppressed
AST value compared with the control group (FIG. 1) [1]: significantly suppressed
LDH value compared with the control group (FIG. 3) [1]: significantly suppressed
blood flow in the liver after reperfusion compared with the control group (FIG. 4) [2]: significantly increased
ALT value compared with the control group (FIG. 6) [3]: significantly suppressed
AST value compared with the control group (FIG. 5) [3]: significantly suppressed
LDH value compared with the control group (FIG. 7) [3]: significantly suppressed
blood flow after reperfusion compared with the control group (FIG. 8) [4]: significantly increased

CCN(CC)CCCC(C)Nc1c2ccc(Cl)cc2nc2ccc(OC)cc12 (stereo not drawn) [quinacrine]
occurrence of lung injury accompanied by reperfusion of the small intestine [5]: can be prevented
